Data from patent publication US8227245B2, “Multipotent stem cells from peripheral tissues and uses thereof” (McGill University, priority 2000, dated 2012).

How the values were obtained:
skin-derived MSCs [1] = experiment: Pharmacological agents added to proliferating skin-derived MSCs (morphology, survival); type: cell-based, mouse; details: plated three days in proliferation medium containing FGF, medium supplemented with agent
From the text: FIG. 10 is a series of photographs showing the effect of various pharmacological agents on mouse skin-derived MSCs.
We tested the ability of pharmacological agents to alter this phenotype.

[2] = tested on: skin-derived stem cells harvested from human foreskin; experiment: Culture of human foreskin skin-derived stem cells in presence and absence of LIF; type: cell-based; details: proliferating non-adherent cultures with EGF and FGF2
From the text: In contrast to human central nervous system derived stem cells, the survival and proliferation of human skin-derived stem cells is not dependent on LIF.
We cultured the cell suspension, as previously described, in non-adherent vessels in the presence of EGF and FGF2. […] The clusters are morphologically indistinguishable from skin-derived stem cells derived from rodent tissue. Skin-derived clusters are loosely compacted, and the cells can be readily dissociated manually without the use of proteases. Such characteristics appear to distinguish skin-derived clusters from CNS-derived neurospheres. […] Furthermore, we have currently passaged and maintained foreskin derived stem cells as proliferating cultures for greater than three months.

skin-derived MSCs [3] = experiment: Endodermal marker expression of skin-derived MSCs by RT-PCR after plating with nicotinamide; type: cell-based; details: cells dissociated and plated in media supplemented with nicotinamide
Protocol: Skin-derived MSCs were cultured under standard proliferation conditions in the presence or absence of B-27 supplement. Differentiation was induced by plating cells in the presence of nicotinamide, and the resulting differentiated cells were analyzed by quantitative RT-PCR. […] Although cells proliferated in either the presence or the absence of B27 supplement can be induced to express endodermal markers, cells proliferated in B27 appear to express such markers to a higher degree.
Our recent discovery that MSCs maintain the potential to produce both neural and non-neural cell types has been accompanied by the discovery that non-neural stem cells such as bone marrow-derived stem cells (i.e., stromal cells or mesenchymal stem cells) also have the potential to produce a wide variety of neural and non-neural stem cells (Ferrari et al., Science 279:1528-1530, 1998; Gussoni et al., Nature 401:390-394, 1999; Peterson et al., Science 284:1168-1170, 1999; Pereira et al., Proc. Natl. Acad. Sci. USA 92:4857-4861, 1995; Prockop, Science 276:71-74, 1997; Kessler and Byrne, Annu. Rev. Physiol. 61:219-242, 1999; Pittenger et al., Science 284:143-147). […] After several days of co-culture the skin-derived stem cells were analyzed based on both morphology and on protein expression. […]

skin derived MSCs = experiment: Neuronal differentiation of skin-derived MSCs plated in 5% serum with added agent, anti-neurofilament immunocytochemistry; type: cell-based; details: 5% serum plus agent, compared with serum alone
Protocol: Cells were dissociated and plated in the presence of either 5% FBS, 5% FBS+retinoic acid (RA), or 5% FBS+BMP7. Cells were analyzed immunocytochemically for expression of neurofilament M (NFM).
Skin derived MSCs were obtained and cultured as described in detail above. To induce differentiation, cells were plated in the presence of 5% serum supplemented with either retinoic acid or BMP-7. Neuronal differentiation was analyzed using a polyclonal anti-neurofilament antibody.

COc1cccc(-c2cc(=O)c3ccccc3o2)c1N [PD098059]
effect on phenotype of proliferating skin-derived MSCs (skin-derived MSCs [1]): caused proliferating cells to flatten and differentiate

C[S+]([O-])c1ccc(-c2nc(-c3ccncc3)c(-c3ccc(F)cc3)[nH]2)cc1 (centres unmarked) [SB203580]
effect on phenotype of proliferating skin-derived MSCs (skin-derived MSCs [1]): no observed effect

LIF: cytokine added to culture medium (R&D Systems)
proliferation, differentiation or survival characteristics in presence and absence of LIF [2]: no significant differences

NC(=O)c1cccnc1 [nicotinamide]
expression of endodermal markers (GATA-4, HNF3α, Isl1, AFP, HNF3β, Ngn3, Pdx-1, Insulin) (skin-derived MSCs [3]): express markers of endodermal differentiation

B1: BMP-7: therapeutic protein (growth factor) added to 5% serum to induce differentiation (protein, UniProt P18075 293-431, looked up)
Bone morphogenetic protein 7: STGSKQRSQNRSKTPKNQEALRMANVAENSSSDQRQACKKHELYVSFRDLGWQDWIIAPEGYAAYYCEGECAFPLNSYMNATNHAIVQTLVHFINPETVPKPCCAPTQLNAISVLYFDDSSNVILKKYRNMVVRACGCH
number and complexity of neurofilament positive cells (skin derived MSCs): enhances the number and complexity of neurofilament positive cells
